{"source": "ChEMBL document CHEMBL6177962", "about": "“Design, synthesis and biological evaluation of 2-arylbenzo[b]furan-4-vinylcarbonyl derivatives based on Salvianolic acid C as antioxidant neuroprotective agents for the treatment of ischemic stroke” (Eur J Med Chem, 2025)", "key": {"Rattus norvegicus [1]": {"test_system": "Rattus norvegicus", "assay": "In vivo activation of Nrf2 pathway in MCAO induced rat model assessed as increase in NRF2 level in brain at 5 to 20 mg/kg, iv by immunofluorescence analysis", "assay_type": "functional, organism-based", "settings": "dose 5-20 mg/kg"}, "Rattus norvegicus [2]": {"test_system": "Rattus norvegicus", "assay": "Neuroprotective activity against cerebral ischemia-reperfusion injury in MCAO rat model assessed as decrease in apoptotic cells in cerebral brain at 10 mg/kg, iv treated after 2 hrs ischemia followed by reperfusion measured after 1 week of post-reperfusion by TUNEL staining based analysis", "assay_type": "functional, organism-based", "settings": "time 1.0 weeks"}, "Rattus norvegicus [3]": {"test_system": "Rattus norvegicus", "assay": "Neuroprotective activity against cerebral ischemia-reperfusion injury in MCAO rat model at 10 mg/kg, iv treated after 2 hrs ischemia followed by reperfusion measured after 1 week of post-reperfusion by barnes maze test", "assay_type": "functional, organism-based", "settings": "time 1.0 weeks"}, "PC-12 [4]": {"test_system": "PC-12", "assay": "Downregulation of KEAP1 expression in rat PC12 cells at 10 uM incubated for 3 hrs by Western blot analysis", "assay_type": "functional, cell-based"}, "PC-12 [5]": {"test_system": "PC-12", "assay": "Neuroprotective activity against t-BHP induced oxidative damage in rat PC12 cells model assessed as decrease in MDA level at 10 uM incubated for 24 hrs", "assay_type": "functional, cell-based"}, "Rattus norvegicus [6]": {"test_system": "Rattus norvegicus", "assay": "(§1) Neuroprotective activity against cerebral ischemia-reperfusion injury in MCAO rat model assessed as reduction in infarct area at 5 to 20 mg/kg, iv treated after 2 hrs ischemia followed by reperfusion measured after 1 week of post-reperfusion by TTC staining based analysis", "assay_type": "functional, organism-based", "settings": "dose 5-20 mg/kg, time 1.0 weeks"}, "PC-12 [7]": {"test_system": "PC-12", "assay": "Neuroprotective activity against t-BHP induced oxidative damage in rat PC12 cells model assessed as cell viability at 10 uM incubated for 24 hrs by CCK-8 assay relative to control", "assay_type": "functional", "settings": "read-out: Activity"}, "Rattus norvegicus [8]": {"test_system": "Rattus norvegicus", "assay": "Upregulation of NRF2 level in MCAO rat model at 5 to 20 mg/kg, iv by Western blot analysis", "assay_type": "functional, organism-based", "settings": "dose 5-20 mg/kg"}, "PC-12 [9]": {"test_system": "PC-12", "assay": "Neuroprotective activity against t-BHP induced oxidative damage in rat PC12 cells model assessed as cell viability at 2.5 to 20 uM incubated for 24 hrs by CCK-8 assay", "assay_type": "functional, cell-based", "settings": "dose 2.5-20 µM"}, "Rattus norvegicus [10]": {"test_system": "Rattus norvegicus", "assay": "[…] of HO-1 level rat model at 5 to 20 mg/kg, iv by Western blot analysis", "assay_type": "functional, organism-based", "settings": "dose 5-20 mg/kg"}, "PC-12 [11]": {"test_system": "PC-12", "assay": "Cytotoxicity against rat PC12 cells assessed as cell viability at 40 uM incubated for 24 hrs by CCK-8 assay relative to control", "assay_type": "functional", "settings": "read-out: Activity"}, "Rattus norvegicus [12]": {"test_system": "Rattus norvegicus", "assay": "In vivo activation of Nrf2 pathway in MCAO induced rat model assessed as increase in NRF2 level in cytoplasm at 5 to 20 mg/kg, iv by Western blot analysis", "assay_type": "functional, organism-based", "settings": "dose 5-20 mg/kg"}, "PC-12 [13]": {"test_system": "PC-12", "assay": "Neuroprotective activity against t-BHP induced oxidative damage in rat PC12 cells model assessed as reduction in intracellular ROS level at 2.5 to 10 uM incubated for 24 hrs by DCFH-DA probe based flow cytometry analysis", "assay_type": "functional, cell-based", "settings": "dose 2.5-10 µM"}, "PC-12 [14]": {"test_system": "PC-12", "assay": "Neuroprotective activity against t-BHP induced oxidative damage in rat PC12 cells model assessed as increase in SOD activity at 2.5 uM incubated for 24 hrs", "assay_type": "functional, cell-based"}, "PC-12 [15]": {"test_system": "PC-12", "assay": "Neuroprotective activity against t-BHP induced oxidative damage in rat PC12 cells model assessed as reduction in intracellular ROS level at 10 uM incubated for 24 hrs by DCFH-DA probe based analysis", "assay_type": "functional, cell-based"}, "PC-12 [16]": {"test_system": "PC-12", "assay": "Neuroprotective activity against t-BHP induced oxidative damage in rat PC12 cells model assessed as decrease in MDA level at 2.5 uM incubated for 24 hrs", "assay_type": "functional, cell-based"}, "PC-12 [17]": {"test_system": "PC-12", "assay": "Neuroprotective activity against t-BHP induced oxidative damage in rat PC12 cells model assessed as attenuation of intracellular ROS level at 5 uM incubated for 24 hrs by DCFH-DA probe based analysis", "assay_type": "functional, cell-based"}, "[18]": {"assay": "Permeability of the compound across blood brain barrier in mouse BEND3 cells at 10 uM incubated for 24 to 48 hrs by HPLC analysis", "assay_type": "ADME, cell-based", "settings": "time 24-48 hrs, read-out: permeability"}, "PC-12 [19]": {"test_system": "PC-12", "assay": "Neuroprotective activity against t-BHP induced oxidative damage in rat PC12 cells model assessed as increase in SOD activity at 10 uM incubated for 24 hrs", "assay_type": "functional, cell-based"}, "[20]": {"target": "Kelch-like ECH-associated protein 1 (Rattus norvegicus) (UniProt P57790)", "sequence (P57790 whole entry)": "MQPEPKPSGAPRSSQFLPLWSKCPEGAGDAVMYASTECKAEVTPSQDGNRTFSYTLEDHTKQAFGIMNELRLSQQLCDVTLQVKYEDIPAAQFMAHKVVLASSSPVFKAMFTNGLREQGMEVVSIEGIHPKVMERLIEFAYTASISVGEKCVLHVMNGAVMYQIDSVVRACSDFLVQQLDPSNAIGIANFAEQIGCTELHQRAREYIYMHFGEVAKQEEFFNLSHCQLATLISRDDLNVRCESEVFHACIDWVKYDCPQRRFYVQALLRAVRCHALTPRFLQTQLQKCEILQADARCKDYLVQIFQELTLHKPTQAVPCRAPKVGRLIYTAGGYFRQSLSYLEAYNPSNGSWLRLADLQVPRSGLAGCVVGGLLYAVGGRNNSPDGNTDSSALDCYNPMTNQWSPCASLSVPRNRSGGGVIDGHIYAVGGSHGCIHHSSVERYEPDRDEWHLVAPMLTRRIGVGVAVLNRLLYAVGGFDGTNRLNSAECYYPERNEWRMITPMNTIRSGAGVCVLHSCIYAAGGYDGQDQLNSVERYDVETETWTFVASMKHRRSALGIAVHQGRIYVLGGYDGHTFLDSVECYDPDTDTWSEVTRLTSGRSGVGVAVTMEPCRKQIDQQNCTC", "assay": "Binding affinity to KEAP1 in rat PC12 cells assessed as thermal stabilization at 10 uM incubated for 3 hrs at 4 degreeC by CETSA", "assay_type": "cell-based"}, "PC-12 [21]": {"test_system": "PC-12", "assay": "Neuroprotective activity against t-BHP induced oxidative damage in rat PC12 cells model assessed as decrease in MDA level at 5 uM incubated for 24 hrs", "assay_type": "functional, cell-based"}, "Rattus norvegicus [22]": {"test_system": "Rattus norvegicus", "assay": "Neuroprotective activity against cerebral ischemia-reperfusion injury in MCAO rat model assessed as decrease in apoptotic cells in cerebral brain at 5 mg/kg, iv treated after 2 hrs ischemia followed by reperfusion measured after 1 week of post-reperfusion by TUNEL staining based analysis", "assay_type": "functional, organism-based", "settings": "time 1.0 weeks"}, "PC-12 [23]": {"test_system": "PC-12", "assay": "Neuroprotective activity against t-BHP induced oxidative damage in rat PC12 cells model assessed as increase in HO-1 level incubated for 24 hrs by Western blot analysis", "assay_type": "functional, cell-based", "settings": "dose 2.5-10 µM"}, "PC-12 [24]": {"test_system": "PC-12", "assay": "Neuroprotective activity against t-BHP induced oxidative damage in rat PC12 cells model assessed as increase in NRF2 level incubated for 24 hrs by Western blot analysis", "assay_type": "functional, cell-based", "settings": "dose 2.5-10 µM"}, "[25]": {"assay": "Metabolic stability in rat liver microsome assessed as parent compound remaining after 60 mins", "assay_type": "ADME", "settings": "liver microsomes, read-out: Stability"}, "PC-12 [26]": {"test_system": "PC-12", "assay": "Antioxidant activity in t-BHP -induced rat PC12 cells at 2.5 to 20 uM", "assay_type": "functional, cell-based", "settings": "dose 2.5-20 µM"}, "PC-12 [27]": {"test_system": "PC-12", "assay": "Neuroprotective activity against t-BHP induced oxidative damage in rat PC12 cells model assessed as attenuation of intracellular ROS level at 2.5 uM incubated for 24 hrs by DCFH-DA probe based analysis", "assay_type": "functional, cell-based"}, "PC-12 [28]": {"test_system": "PC-12", "assay": "Neuroprotective activity against t-BHP induced oxidative damage in rat PC12 cells model assessed as increase in SOD activity at 5 uM incubated for 24 hrs", "assay_type": "functional, cell-based"}, "PC-12 [29]": {"test_system": "PC-12", "assay": "Cytotoxicity against rat PC12 cells assessed as cell viability at 10 uM incubated for 24 hrs by CCK-8 assay relative to control", "assay_type": "functional", "settings": "read-out: Activity"}, "Rattus norvegicus [30]": {"test_system": "Rattus norvegicus", "assay": "Neuroprotective activity against cerebral ischemia-reperfusion injury in MCAO rat model assessed as decrease in apoptotic cells in cerebral brain at 20 mg/kg, iv treated after 2 hrs ischemia followed by reperfusion measured after 1 week of post-reperfusion by TUNEL staining based analysis", "assay_type": "functional, organism-based", "settings": "time 1.0 weeks"}, "Rattus norvegicus [31]": {"test_system": "Rattus norvegicus", "assay": "Neuroprotective activity against cerebral ischemia-reperfusion injury in MCAO rat model assessed as reduction in infarct area at 20 mg/kg, iv treated after 2 hrs ischemia followed by reperfusion measured after 1 week of post-reperfusion by TTC staining based analysis", "assay_type": "functional, organism-based", "settings": "time 1.0 weeks"}, "Rattus norvegicus [32]": {"test_system": "Rattus norvegicus", "assay": "In vivo activation of Nrf2 pathway in MCAO induced rat model assessed as increase in NRF2 level in nucleus at 5 to 20 mg/kg, iv by Western blot analysis", "assay_type": "functional, organism-based", "settings": "dose 5-20 mg/kg"}, "Rattus norvegicus [33]": {"test_system": "Rattus norvegicus", "assay": "as §1, with “ROS accumulation in cortex” for “infarct area”, “dihydroethidium” for “TTC”, “based fluorescence microscopic” for “based”", "assay_type": "functional, organism-based", "settings": "dose 5-20 mg/kg, time 1.0 weeks"}}, "note": "Calls of active or inactive are those of the source. No cut-off for these calls is given here.", "data": [{"smiles": "COc1ccc(/C=C/C(=O)c2ccc(O)c(O)c2)c2cc(-c3ccc(C)cc3)oc12", "values": [{"measurement": "Activity", "setting": "Rattus norvegicus [1]", "value": "Active"}, {"measurement": "Activity", "setting": "Rattus norvegicus [2]", "value": "Active"}, {"measurement": "Activity", "setting": "Rattus norvegicus [3]", "value": "Active"}, {"measurement": "Activity", "setting": "PC-12 [4]", "value": "Active"}, {"measurement": "Activity", "setting": "PC-12 [5]", "value": "Active"}, {"measurement": "Activity", "setting": "Rattus norvegicus [6]", "value": "Active"}, {"measurement": "viability at 10 µM", "setting": "PC-12 [7]", "value": 95, "unit": "%"}, {"measurement": "Activity", "setting": "Rattus norvegicus [8]", "value": "Active"}, {"measurement": "Activity", "setting": "PC-12 [9]", "value": "Active"}, {"measurement": "Activity", "setting": "Rattus norvegicus [10]", "value": "Active"}, {"measurement": "viability at 40 µM", "setting": "PC-12 [11]", "value": 109, "unit": "%"}, {"measurement": "Activity", "setting": "Rattus norvegicus [12]", "value": "Active"}, {"measurement": "Activity", "setting": "PC-12 [13]", "value": "Active"}, {"measurement": "Activity", "setting": "PC-12 [14]", "value": "Active"}, {"measurement": "Activity", "setting": "PC-12 [15]", "value": "Active"}, {"measurement": "Activity", "setting": "PC-12 [16]", "value": "Active"}, {"measurement": "Activity", "setting": "PC-12 [17]", "value": "Active"}, {"measurement": "Papp at 10 µM", "setting": "[18]", "value": 7.46, "unit": "×10⁻⁶ cm/s"}, {"measurement": "Activity", "setting": "PC-12 [19]", "value": "Active"}, {"measurement": "Activity", "setting": "[20]", "value": "Active"}, {"measurement": "Activity", "setting": "PC-12 [21]", "value": "Active"}, {"measurement": "Activity", "setting": "Rattus norvegicus [22]", "value": "Active"}, {"measurement": "Activity", "setting": "PC-12 [23]", "value": "Dose-dependent-effect"}, {"measurement": "Activity", "setting": "PC-12 [24]", "value": "Dose-dependent-effect"}, {"measurement": "remaining at 1 h", "setting": "[25]", "value": 63.8, "unit": "%"}, {"measurement": "Activity", "setting": "PC-12 [26]", "value": "Active"}, {"measurement": "Activity", "setting": "PC-12 [27]", "value": "Active"}, {"measurement": "Activity", "setting": "PC-12 [28]", "value": "Active"}, {"measurement": "viability at 10 µM", "setting": "PC-12 [29]", "value": 101, "unit": "%"}, {"measurement": "Activity", "setting": "Rattus norvegicus [30]", "value": "Active"}, {"measurement": "Activity", "setting": "Rattus norvegicus [31]", "value": "Active"}, {"measurement": "Activity", "setting": "Rattus norvegicus [32]", "value": "inactive"}, {"measurement": "Activity", "setting": "Rattus norvegicus [33]", "value": "Active"}]}]}
